Among the data in US6743939B2, “Phenylheteroalkylamine derivatives” (AstraZeneca AB, priority 2000, dated 2004) are melting point and IC50 values, retold here.

Structures are written as SMILES.

Test system in one data set: not given
Test: not given
Details: not given
`N#Cc1ccc(Cl)cc1O[C@H](CCCNCCCO)c1ccccc1.O=C(O)C(=O)O` [Example 11, 4-Chloro-2-[[(1R)-4-[(3-hydroxypropyl)amino]-1-phenylbutyl]oxy]-benzonitrile ethanedioate] came in with a melting point of 111 to 112 °C.
The compound `CNCC[C@@H](Cc1ccc(C)cc1)Oc1cc(Cl)ccc1Cl.O=C(O)/C=C/C(=O)O` [Example 17, R-γ-(2,5-Dichlorophenoxy)-N,4-dimethyl-benzenebutanamine fumarate] displayed a melting point of 126 to 130 °C.
Still for that read-out and setting: under `CNCCCC(Oc1cc(Cl)ccc1C#N)c1ccccn1.O=C(O)C(=O)O` (stereo not shown) [Example 31, 4-Chloro-2-[4-(methylamino)-1-(2-pyridinyl)butoxy]benzonitrile oxalate] stands 170 to 171 °C; under `N#Cc1ccc(Cl)cc1O[C@H](CCCNC1CC1)c1ccccc1.O=C(O)C(=O)O` [Example 10, 4-Chloro-2-[[(1R)-4-(cyclopropylamino)-1-phenylbutyl]oxy]-benzonitrile ethanedioate], 173 to 174 °C; under `CNCCCC(Oc1cc(Cl)ccc1C#N)c1ccncc1.O=C(O)C(=O)O` (stereo not shown) [Example 37, 4-Chloro-2-[4-(methylamino)-1-(4-pyridinyl)butoxy]benzonitrile oxalate], 169 to 172 °C.
Consider `CCN(CCO)CCC[C@@H](Oc1cc(Cl)ccc1C#N)c1ccccc1.Cl`, for which the melting point lay in the range of 141 to 144 °C.
In turn, `CNCC[C@@H](Cc1ccc(F)cc1)Oc1cc(Cl)ccc1Cl` [Example 15, R-γ-(2,5-Dichlorophenoxy)-4-fluoro-N-methyl benzenebutanamine] yielded a melting point of 160 to 162 °C.
`N#Cc1ccc(Cl)cc1O[C@H](CCCNCCO)c1ccccc1.O=C(O)C(=O)O` [Example 9, 4-Chloro-2-[[(1R)-4-[(2-hydroxyethyl)amino]-1-phenylbutyl]oxy]-benzonitrile ethanedioate] displayed a melting point of 158 to 159 °C.
For `N#Cc1ccc(Cl)cc1O[C@H](CCCN1CCCC1)c1ccccc1.O=C(O)C(=O)O` [Example 3, 4-Chloro-2-[[(1R)-1-phenyl-4-(1-pyrrolidinyl)butyl]oxy]-benzonitrile ethanedioate], the melting point is 157 to 158 °C.
Consider `CNCCCC(Oc1cc(Cl)c(F)cc1C#N)c1ccccn1.O=C(O)C(=O)O` (stereo not shown) [Example 32, 4-Chloro-5-fluoro-2-[4-(methylamino)-1-(2-pyridinyl)butoxy]benzonitrile oxalate], for which the melting point lay in the range of 169 to 170 °C.
With `C[C@@H](CO)NCCC[C@@H](Oc1cc(Cl)ccc1C#N)c1ccccc1.O=C(O)C(=O)O` [Example 13, 4-Chloro-2-[[(1R)-4-[[(1S)-2-hydroxy-1-methylethyl]amino]-1-phenylbutyl]oxy]-benzonitrile ethanedioate], the melting point lay in the range of 186 to 187 °C.
Compound `N#Cc1ccc(Cl)cc1O[C@H](CCCNCc1cccnc1)c1ccccc1.O=C(O)C(=O)O` [Example 6, 4-Chloro-2-[[(1R)-1-phenyl-4-[(3-pyridinylmethyl)amino]butyl]oxy]-benzonitrile ethanedioate] displayed a melting point of 188 to 189 °C.
`CNCC[C@@H](Cc1ccccc1)Oc1cc(Cl)ccc1Cl.O=C(O)C(=O)O` [Example 2, R-γ-(2,5-Dichlorophenoxy)-N-methyl-benzenebutanamine ethanedioate] came in with a melting point of 167 to 169 °C.
Compound `C[C@H](CO)NCCC[C@@H](Oc1cc(Cl)ccc1C#N)c1ccccc1.O=C(O)C(=O)O` [Example 12, 4-Chloro-2-[[(1R)-4-[[(1R)-2-hydroxy-1-methylethyl]amino]-1-phenylbutyl]oxy]-benzonitrile ethanedioate] registered a melting point of 163 to 164 °C.
On to `CNCCC[C@@H](Oc1cc(Cl)ccc1C#N)c1ccccc1.O=C(O)C(=O)O` [Example 1, 4-Chloro-2-[[(1R)-4-(methylamino)-1-phenylbutyl]oxy]benzonitrile ethanedioate], for which the melting point lay within 167 to 169 °C.

The next data set concerns the target T1, nitric oxide synthase (induced, from murine macrophage cell line J774A-1) (Mus musculus, UniProt P29477).
T1 construct: The reaction is started by adding 50 μl of cell lysate (prepared as above); endogenous in cells; host or cells: J774A-1 murine macrophage cell line, induced with LPS and IFN-gamma; crude cell lysate
As to the kind of experiment: Screen 1: nitric oxide synthase inhibition, 3H-L-arginine to 3H-L-citrulline conversion, lysate of induced J774A-1 cells. Type of data set: biochemical. The following applies: standard to verify the procedure, 1 hour at room temperature, read-out: IC50 (50% inhibitory concentration). How it is done: The activity of compounds of formula (I), or a pharmaceutically acceptable salt, enantiomer or racemate thereof, may be screened for nitric oxide synthase inhibiting activity by a procedure based on that of Förstermann et al., Eur. J. Pharm., 1992, 225; 161-165. Nitric oxide synthase converts ^3H-L-arginine into ^3H-L-citrulline which can be separated by cation exchange chromatography and quantified by liquid scintillation counting.
Enzyme is prepared, after induction, from the cultured murine macrophage cell line J774A-1 (obtained from the laboratories of the Imperial Cancer Research Fund). J774A-1 cells are cultured in Dulbeccos Modified Eagles Medium (D[MEM) supplemented with 10% foetal bovine serum, 4 mM L-glutamine and antibiotics (100 units/ml penicillin G, […] streptomycin & […] amphotericin B). Cells are routinely grown in […] flasks containing 35 ml medium kept at 37° C. and in a humidified atmosphere containing 5% CO2. […]
Labelled L-citrulline is separated from labelled L-arginine using Dowex AG-50W. […] After allowing the samples to dry the L-citrulline is quantified by scintillation counting.
In a typical experiment basal activity is 300 dpm per 75 μl sample which is increased to 1900 dpm in the reagent controls. […] Compounds are tested at a range of concentrations and from the inhibitions obtained IC50 values are calculated. […]
Consider `N=C(N)NN` [aminoguanidine], for which the IC50 came to 10 µM.

The melting point is the temperature, or range, at which the solid turns liquid.
